Tests used:
Format in all cases: in vivo, rat
PI-IBS rats [1] = assay: Colonic EC cell counting (silver staining); details: 30 mg/kg i.g.
Experimental: (§1) Six groups of 5 rats are tested. The groups setting and treatments are as described in Example 1. Different from Example 1, AWR test are not applied to the rats in this experiment in order to obtain the basal data without CRD stimulus. After the last drug administration, a 6 cm proximal colon (1-2 cm from caecum) is collected and divided into 3 parts, the proximal is fixed in 4% paraformaldehyde and embedded in paraffin for EC cell staining; the middle part is collected for 5-HT content measurement and electron microscopic evaluation, and the distal part is for western blotting analysis.
Tissue sections (5-μm thick) are deparaffinized and rehydrated for silver staining. Briefly, sections are incubated with 5% ammoniacal silver solution for 4 h at room temperature, then 2 h in 56° C. and subsequently 12 h at room temperature in a dark humidified chamber. After rinsing with water, 5% sodium hyposulfite is added and the tissue sections are incubated for 5 min at room temperature. The brown to black silver precipitate in the cytoplasm of EC cells represents as a positive reaction. A researcher blinded to treatment counted 5 random fields at 200× magnifications for each section, and the number of EC cells per mm^2 of mucosa is quantified using Image J NIH software.

PI-IBS rats [2] = assay: Abdominal withdrawal reflex (AWR) test: pain threshold pressure to colorectal distension
Experimental: Sprague-Dawley male rats (Laboratory Animal Services Centre, The Chinese University of Hong Kong) aged 6 weeks with body weight around 220 g are used to develop PI-IBS model. Briefly, rats are fasted for 24 h, and deeply anesthetized with chloral hydrate (350 mg.kg^−1, i.p.). After induction of colitis by 2,4,6-trinitrobenzenesulfonic acid solution (TNBS, 5 mg/0.8 ml/rat, in 50% ethanol, 8 cm from anus) administration, the rats are allowed to recover for at least 4 weeks before use. The control rats are similarly administered with 0.8 ml saline instead of TNBS. Only the rats that have completely recovered from the initial inflammation and acquired visceral hypersensitivity are used as the PI-IBS rats.
6 groups of 12 rats are tested. Normal rats (Group 1) are treated with water. PI-IBS rats are randomly divided into 5 groups and orally treated with water (Group 2), Doxantrazole (mast cell stabilizer, 30 mg/kg/d, Group 3), and Quercetin (Group 4-6) at the dose of 5, 10, and 20 mg/kg/d, respectively. After 2 weeks daily drug administration, 5 rats in each group are used to measure pain threshold pressure by abdominal withdrawal reflex (AWR) test, and the remaining […] is used for electromyography (EMG) recording.
AWR test is performed as previously described in Al-Chaer E D, Kawasaki M, Pasricha P J. A new model of chronic visceral hypersensitivity in adult rats induced by colon irritation during postnatal development. Gastroenterology. 2000 November; 119(5):1276-85. Briefly, rats are lightly anesthetized with ether; a latex balloon is inserted into the descending colon. Rats are then allowed to recover for about 1 h. The tube of the balloon is connected via a Y-connector to a sphygmomanometer and colorectal distension is applied in increments of 5 mmHg until a visible contraction of the abdominal wall is observed by an investigator blinded to the treatment. The pain threshold pressure is defined as the intensity of colorectal distension (CRD) that elicited an observable AWR, i.e. a sudden and persistent abdominal muscle contraction with abdomen lift off the platform. The pain threshold pressure of all groups is recorded and repeated five times with intervals of at least 5 minutes for recovery. EMG recording are conducted as previously described in Tammpere A, Brusberg M, Axenborg J, Hirsch I, Larsson H, Lindstrom E. Evaluation of pseudo-affective responses to noxious colorectal distension in rats by manometric recordings. Pain. 2005 August; 116(3):220-6 and Li Z, Zhang X J, Xu H X, Sung J J, Bian Z X. Intracolonical administration of protease-activated receptor-2 agonists produced visceral hyperalgesia by up-regulating serotonin in the colon of rats. Eur J. Pharmacol. 2009 Mar. 15; 606(1-3):199-204. Firstly, a surgical operation is made to implant the electrodes into the left external abdominal oblique muscles 7 days before EMG recording. After the last drug administration, a flexible latex balloon is inserted into the rat descending colon, and the rats are allowed to accommodate for 1 h. CRD is initiated, and the EMG signal is amplified and filtered by Power Lab System. Graded colorectal distension (20, 40, 60, and 80 mmHg; 20 s duration; 2 min inter-stimulus interval) is carried out for total three cycles to each rat. The changes of area under the curve (AUC) are calculated using that during 20 s distension period over the 20 s baseline.

PI-IBS rats [3] = assay: Mechanical stimuli (CRD)-induced 5-HT release: colonic 5-HT content with or without CRD
Experimental: (§2) 5-HT content in the colon tissue is assayed based on our previously reported procedure in Qi S D, Tian S L, Xu H X, Sung J J, Bian Z X. Quantification of luminally released serotonin in rat proximal colon by capillary electrophoresis with laser-induced fluorescence detection. Anal Bioanal Chem. 2009 April; 393(8):2059-66. Briefly, the colon segment is homogenized in 15% iced trichloroacetic acid; for 2 min and stored at 4° C. for 2 h. After centrifuge at 10,000 G for 15 min, the supernatant of each sample is filtered using 0.22 μm filters and extracted with diethyl ether for five times to remove the trichloroacetic acid. The prepared samples are added to derivatization solution (150 mM sodium tetraborate, 25% acetonitrile, 2 mM CFSE) and incubated for […] in dark at room temperature. The 5-HT content is analyzed by capillary electrophoresis with laser-induced fluorescence detection and expressed as nanogram per milligram (wet weight of tissue).
To determine whether mechanical stimuli (CRD) can induce colonic 5-HT release in PI-IBS rats, and whether Quercetin has effect on it, 5-HT content in colonic tissue is evaluated in rats with or without AWR test. The colon tissues for 5-HT content determination are collected from the rats from Example 1 and Example 2, and the methods for 5-HT content determination are followed as described in Example 2.

PI-IBS rats [4] = assay: Colonic tissue 5-HT content (capillary electrophoresis, laser-induced fluorescence); details: 30 mg/kg i.g.
Experimental: as §1, §2

SMILES: O=C1c2ccccc2S(=O)(=O)c2cc(-c3nnn[nH]3)ccc21 [Doxantrazole, reference compound]
- Effect on colonic EC cells number in PI-IBS rats (PI-IBS rats [1]): no marked effects
- EC cell density (PI-IBS rats [1]; PI-IBS rats, colon): 95 ± 10 Number/mm^2
- Pain threshold pressure, after treatment (PI-IBS rats [2]; 30 mg/kg i.g. daily, 2 weeks): 29 ± 1.2 mmHg
- Pain threshold pressure, before treatment (PI-IBS rats [2]; 30 mg/kg i.g. group, before treatment): 25 ± 1.3 mmHg
- 5-HT content of tissue, +CRD (PI-IBS rats [3]; 30 mg/kg i.g., after CRD): 2.62 ± 0.30 ng/mg
- 5-HT content of tissue, -CRD (PI-IBS rats [3]; 30 mg/kg i.g., without CRD): 5.75 ± 0.44^ ng/mg
- Decrease of colon tissue 5-HT content after CRD application (PI-IBS rats [3]; 30 mg/kg, p<0.05): ~54.4%
- Effect on colonic 5-HT content in PI-IBS rats (PI-IBS rats [4]): no marked effects
- 5-HT content (PI-IBS rats [4]; PI-IBS rats, colon): 5.75 ± 0.44^ ng/mg

Reference: patent US20130210907A1, “METHOD FOR PREVENTING OR TREATING ENTEROCHROMAFFIN CELL HYPERPLASIA-RELATED DISEASES BY QUERCETIN ADMINISTRATION” (HONG KONG BAPTIST UNIVERSITY, priority 2012, published 2013)
